Data reported in ChEMBL document CHEMBL5346923, “Novel pyridinium cationic pleuromutilin analogues overcoming bacterial multidrug resistance” (Eur J Med Chem, 2023).
In brackets after ≈: the same amount, converted by molar mass. Activity calls are given as the source filed them. The rule behind the calls is not given here.

Key:
Staphylococcus aureus [1] = test: Antibacterial activity against compound-resistant/methicillin-resistant Staphylococcus aureus assessed as inhibition of bacterial growth; type: functional
Staphylococcus aureus [2] = test: Antibacterial activity against clinical isolate Staphylococcus aureus harbouring blaZ gene assessed as inhibition of bacterial growth measured after 24 hrs by MH broth based assay; type: functional
Staphylococcus aureus [3] = test: Antibacterial activity against multi-drug resistant Staphylococcus aureus sa1 infected in BABL/C mouse assessed as reduction in bacterial load in lungs at 20 mg/kg, ip measured after 2 days; type: functional; conditions: time 2 day
[4] = test system: Streptococcus hyovaginalis; test: Antibacterial activity against clinical isolate Streptococcus hyovaginalis harbouring ErmB and tetO gene assessed as inhibition of bacterial growth measured after 24 hrs by MH broth based assay; type: functional
Staphylococcus aureus [5] = test: Antibacterial activity against clinical isolate Staphylococcus aureus harbouring cfr gene assessed as inhibition of bacterial growth measured after 24 hrs by MH broth based assay; type: functional
Staphylococcus aureus [6] = test: Antibacterial activity against clinical isolate Staphylococcus aureus harbouring cfr and erm C gene assessed as inhibition of bacterial growth measured after 24 hrs by MH broth based assay; type: functional
Staphylococcus aureus [7] = test: Antibacterial activity against methicillin-resistant Staphylococcus aureus ATCC 43300 assessed as inhibition of bacterial growth measured after 24 hrs by MH broth based assay; type: functional
Staphylococcus aureus [8] = test: Antibacterial activity against multi-drug resistant Staphylococcus aureus sa1 infected in ip dosed BABL/C mouse assessed as survival rate measured upto 7 days; type: functional; conditions: sa1, 168 h, time <= 7 day
Staphylococcus aureus [9] = test: Antibacterial activity against clinical isolate Staphylococcus aureus harbouring erm C gene assessed as inhibition of bacterial growth measured after 24 hrs by MH broth based assay; type: functional
Streptococcus suis = test: Antibacterial activity against clinical isolate Streptococcus suis harbouring IsaE and ErmA gene assessed as inhibition of bacterial growth measured after 24 hrs by MH broth based assay; type: functional
Aerococcus viridans = test: Antibacterial activity against clinical isolate Aerococcus viridans harbouring optrA and ErmA gene assessed as inhibition of bacterial growth measured after 24 hrs by MH broth based assay; type: functional
Streptococcus parasuis [10] = test: Antibacterial activity against clinical isolate Streptococcus parasuis harbouring InuD gene assessed as inhibition of bacterial growth measured after 24 hrs by MH broth based assay; type: functional
Staphylococcus aureus [11] = test: Antibacterial activity against clinical isolate Staphylococcus aureus harbouring IsaA, cfr and erm A gene assessed as inhibition of bacterial growth measured after 24 hrs by MH broth based assay; type: functional
[12] = test system: Streptococcus hyovaginalis; test: Antibacterial activity against clinical isolate Streptococcus hyovaginalis harbouring IsaE and optrA gene assessed as inhibition of bacterial growth measured after 24 hrs by MH broth based assay; type: functional
Staphylococcus aureus [13] = test: Antibacterial activity against Staphylococcus aureus ATCC 29213 assessed as inhibition of bacterial growth measured after 24 hrs by MH broth based assay; type: functional
Escherichia coli [14] = test: Antibacterial activity against Escherichia coli MG1655 harbouring acrB gene assessed as inhibition of bacterial growth measured after 24 hrs by MH broth based assay; type: functional
Staphylococcus aureus [15] = test: Antibacterial activity against multi-drug resistant Staphylococcus aureus sa1 infected in BABL/C mouse assessed as reduction in bacterial load in lungs at 40 mg/kg, ip measured after 2 days; type: functional; conditions: time 2 day
Staphylococcus aureus [16] = test: Antibacterial activity against multi-drug resistant Staphylococcus aureus sa1 infected in BABL/C mouse assessed as lymphocyte infiltration at 20 mg/kg, ip; type: functional, organism-based
Staphylococcus aureus [17] = test: Antibacterial activity against clinical isolate Staphylococcus aureus harbouring ArlS, norA and MgrA gene assessed as inhibition of bacterial growth measured after 24 hrs by MH broth based assay; type: functional
[18] = test system: Staphylococcus epidermidis; test: Antibacterial activity against methicillin-resistant Staphylococcus epidermidis ATCC 51625 assessed as inhibition of bacterial growth measured after 24 hrs by MH broth based assay; type: functional
Escherichia coli [19] = test: Antibacterial activity against Escherichia coli ATCC 25922 assessed as inhibition of bacterial growth measured after 24 hrs by MH broth based assay; type: functional
Staphylococcus aureus [20] = test: Antibacterial activity against multi-drug resistant Staphylococcus aureus sa1 infected in BABL/C mouse assessed as appearance of alveolar septa thickening at 20 to 40 mg/kg, ip; type: functional, organism-based; conditions: dose 20-40 mg/kg
Staphylococcus aureus [21] = test: Antibacterial activity against multi-drug resistant Staphylococcus aureus sa1 infected in BABL/C mouse assessed as neutrophil infiltration at 20 mg/kg, ip; type: functional, organism-based
Klebsiella pneumoniae [22] = test: Antibacterial activity against clinical isolate Klebsiella pneumoniae harbouring blaKpc gene assessed as inhibition of bacterial growth measured after 24 hrs by MH broth based assay; type: functional
Bacillus subtilis = test: Antibacterial activity against Bacillus subtilis ATCC 6633 assessed as inhibition of bacterial growth measured after 24 hrs by MH broth based assay; type: functional
Streptococcus pneumoniae [23] = test: Antibacterial activity against Streptococcus pneumoniae ATCC 49619 assessed as inhibition of bacterial growth measured after 24 hrs by MH broth based assay; type: functional
Staphylococcus aureus [24] = test: Antibacterial activity against clinical isolate multi-drug resistant Staphylococcus aureus sal assessed as inhibition of bacterial growth; type: functional
Staphylococcus aureus [25] = test: Antibacterial activity against multi-drug resistant Staphylococcus aureus sa1 infected in BABL/C mouse assessed as appearance of congested pulmonary capillaries at 20 mg/kg, ip; type: functional, organism-based
Klebsiella pneumoniae [26] = test: Antibacterial activity against clinical isolate Klebsiella pneumoniae harbouring mcr-8 gene assessed as inhibition of bacterial growth measured after 24 hrs by MH broth based assay; type: functional
Escherichia coli [27] = test: Antibacterial activity against clinical isolate Escherichia coli harbouring NDM-17 gene assessed as inhibition of bacterial growth measured after 24 hrs by MH broth based assay; type: functional
Proteus = test: Antibacterial activity against Proteus CMCC (B) 49027 assessed as inhibition of bacterial growth measured after 24 hrs by MH broth based assay; type: functional
Staphylococcus aureus [28] = test: Antibacterial activity against tiamulin-resistant/methicillin-resistant Staphylococcus aureus assessed as inhibition of bacterial growth; type: functional
Enterococcus hirae = test: Antibacterial activity against clinical isolate Enterococcus hirae assessed as inhibition of bacterial growth measured after 24 hrs by MH broth based assay; type: functional
Staphylococcus aureus [29] = test: Antibacterial activity against clinical isolate Staphylococcus aureus harbouring IsaE gene assessed as inhibition of bacterial growth measured after 24 hrs by MH broth based assay; type: functional
Staphylococcus aureus [30] = test: Antibacterial activity against methicillin-resistant Staphylococcus aureus assessed as resistance development by measuring fold increase in MIC measured after 24 days; type: functional; conditions: time 24 day
Enterococcus = test: Antibacterial activity against vancomycin-resistant Enterococcus ATCC 700221 assessed as inhibition of bacterial growth measured after 24 hrs by MH broth based assay; type: functional
Enterococcus lactis = test: Antibacterial activity against clinical isolate Enterococcus lactis assessed as inhibition of bacterial growth measured after 24 hrs by MH broth based assay; type: functional
Streptococcus parasuis [31] = test: Antibacterial activity against clinical isolate Streptococcus parasuis harbouring optrA gene assessed as inhibition of bacterial growth measured after 24 hrs by MH broth based assay; type: functional
Staphylococcus aureus [32] = test: Antibacterial activity against clinical isolate multi-drug resistant Staphylococcus aureus sal assessed as reduction in log10 CFU at 6 times of MIC measured after 8 hrs by time-kill assay; type: functional
Staphylococcus aureus [33] = test: Antibacterial activity against multi-drug resistant Staphylococcus aureus sa1 infected in BABL/C mouse assessed as survival rate at 40 mg/kg, ip measured upto 7 days; type: functional; conditions: sa1, 168 h, time <= 7 day
Staphylococcus aureus [34] = test: Antibacterial activity against clinical isolate Staphylococcus aureus harbouring tet38 gene assessed as inhibition of bacterial growth measured after 24 hrs by MH broth based assay; type: functional
Streptococcus pneumoniae [35] = test: Antibacterial activity against clinical isolate Streptococcus pneumoniae harbouring ermB gene assessed as inhibition of bacterial growth measured after 24 hrs by MH broth based assay; type: functional
Escherichia coli [36] = test: Antibacterial activity against Escherichia coli MG1655 assessed as inhibition of bacterial growth measured after 24 hrs by MH broth based assay; type: functional
Klebsiella pneumoniae [37] = test: Antibacterial activity against Klebsiella pneumonia CMCC (B) 46117 assessed as inhibition of bacterial growth measured after 24 hrs by MH broth based assay; type: functional
Staphylococcus aureus [38] = test: Antibacterial activity against Staphylococcus aureus ATCC 29213 assessed as inhibition of bacterial division at 1 to 4 times of MIC by SEM analysis; type: functional, organism-based

Compound: C=C[C@]1(C)C[C@@H](OC(=O)CSCCN(CC)CC)[C@]2(C)[C@H](C)CC[C@]3(CCC(=O)[C@H]32)[C@@H](C)[C@@H]1O [TIAMULIN]
- MIC (Staphylococcus aureus [1]): 1 µg/mL (≈ 2.03 µM)
- MIC (Staphylococcus aureus [2]): 0.5 µg/mL (≈ 1.01 µM)
- Activity (Staphylococcus aureus [3]): 1.35 log10CFU/ml
- MIC [4]: 64 µg/mL (≈ 130 µM)
- MIC (Staphylococcus aureus [5]): 128 µg/mL (≈ 259 µM)
- MIC (Staphylococcus aureus [6]): 128 µg/mL (≈ 259 µM)
- MIC (Staphylococcus aureus [7]): 0.5 µg/mL (≈ 1.01 µM)
- ED50 (Staphylococcus aureus [8]): 47.5 mg/kg
- MIC (Staphylococcus aureus [9]): 32 µg/mL (≈ 64.8 µM)
- MIC (Streptococcus suis): 64 µg/mL (≈ 130 µM)
- MIC (Aerococcus viridans): 32 µg/mL (≈ 64.8 µM)
- MIC (Streptococcus parasuis [10]): 64 µg/mL (≈ 130 µM)
- MIC (Staphylococcus aureus [11]): 128 µg/mL (≈ 259 µM)
- MIC [12]: 64 µg/mL (≈ 130 µM)
- MIC (Staphylococcus aureus [13]): 0.5 µg/mL (≈ 1.01 µM)
- MIC (Escherichia coli [14]): 2 µg/mL (≈ 4.05 µM)
- Activity (Staphylococcus aureus [15]): 1.94 log10CFU/ml
- Activity (Staphylococcus aureus [16]): Active
- MIC (Staphylococcus aureus [17]): 0.5 µg/mL (≈ 1.01 µM)
- MIC [18]: 0.25 µg/mL (≈ 0.506 µM)
- MIC (Escherichia coli [19]): > 64 µg/mL
- Activity (Staphylococcus aureus [20]): Active
- Activity (Staphylococcus aureus [21]): Active
- MIC (Klebsiella pneumoniae [22]): 32 µg/mL (≈ 64.8 µM)
- MIC (Bacillus subtilis): 64 µg/mL (≈ 130 µM)
- MIC (Streptococcus pneumoniae [23]): 0.063 µg/mL (≈ 0.128 µM)
- MIC (Staphylococcus aureus [24]): 128 µg/mL (≈ 259 µM)
- Activity (Staphylococcus aureus [25]): Active
- MIC (Klebsiella pneumoniae [26]): 16 µg/mL (≈ 32.4 µM)
- MIC (Escherichia coli [27]): 64 µg/mL (≈ 130 µM)
- MIC (Proteus): > 64 µg/mL
- MIC (Staphylococcus aureus [28]): 64 µg/mL (≈ 130 µM)
- MIC (Enterococcus hirae): 8 µg/mL (≈ 16.2 µM)
- MIC (Staphylococcus aureus [29]): 128 µg/mL (≈ 259 µM)
- fold change (FC) (Staphylococcus aureus [30]): 64
- MIC (Enterococcus): 64 µg/mL (≈ 130 µM)
- MIC (Enterococcus lactis): 128 µg/mL (≈ 259 µM)
- MIC (Streptococcus parasuis [31]): 64 µg/mL (≈ 130 µM)
- Activity (Staphylococcus aureus [32]): Active
- survival at 40 mg/kg (Staphylococcus aureus [33]): 50%
- MIC (Staphylococcus aureus [34]): 0.25 µg/mL (≈ 0.506 µM)
- MIC (Streptococcus pneumoniae [35]): 32 µg/mL (≈ 64.8 µM)
- MIC (Escherichia coli [36]): 64 µg/mL (≈ 130 µM)
- MIC (Klebsiella pneumoniae [37]): 16 µg/mL (≈ 32.4 µM)
- Activity (Staphylococcus aureus [38]): Active

Compound: C=C[C@]1(C)C[C@@H](OC(=O)CSc2cc[n+](CC(=O)N3CCCCC3)cc2)[C@]2(C)[C@H](C)CC[C@]3(CCC(=O)[C@H]32)[C@@H](C)[C@@H]1O.[I-]
- MIC (Staphylococcus aureus [7]): 0.25 µg/mL
- MIC (Staphylococcus aureus [13]): 0.25 µg/mL
- MIC (Escherichia coli [14]): 2 µg/mL
- MIC [18]: 0.125 µg/mL
- MIC (Escherichia coli [19]): 64 µg/mL
- MIC (Bacillus subtilis): > 64 µg/mL
- MIC (Streptococcus pneumoniae [23]): 0.125 µg/mL
- MIC (Proteus): > 64 µg/mL
- MIC (Enterococcus): 64 µg/mL
- MIC (Escherichia coli [36]): 64 µg/mL
- MIC (Klebsiella pneumoniae [37]): 64 µg/mL

Compound: C=C[C@]1(C)C[C@@H](OC(=O)CSc2cc[n+](CC#CC)cc2)[C@]2(C)[C@H](C)CC[C@]3(CCC(=O)[C@H]32)[C@@H](C)[C@@H]1O.[I-]
- MIC (Staphylococcus aureus [7]): 0.25 µg/mL
- MIC (Staphylococcus aureus [13]): 0.125 µg/mL
- MIC (Escherichia coli [14]): 1 µg/mL
- MIC [18]: 0.063 µg/mL
- MIC (Escherichia coli [19]): 64 µg/mL
- MIC (Bacillus subtilis): > 64 µg/mL
- MIC (Streptococcus pneumoniae [23]): < 0.031 µg/mL
- MIC (Proteus): > 64 µg/mL
- MIC (Enterococcus): 32 µg/mL
- MIC (Escherichia coli [36]): 64 µg/mL
- MIC (Klebsiella pneumoniae [37]): 64 µg/mL
